According to patent publication US7884083B2, “Immunomodulatory compositions, methods of making, and methods of use thereof” (Dynavax Technologies Corporation, priority 2002, dated 2011):

Tests used:
mouse lung cells = assay: Gene modulation in mouse lung after intranasal instillation (TAQMAN, relative cycle thresholds; Table 18); format: in vivo; set-up: Relative Cycle Thresholds (CTs), IFN-α2 / Relative Cycle Thresholds (CTs), BCA-1 / Relative Cycle Thresholds (CTs), IP-10 / Relative Cycle Thresholds (CTs), MIP-1b / Relative Cycle Thresholds (CTs), 12/15-lipoxg: reference not given here; conditions: 6 hours after intranasal instillation
Description: Modulation of a variety of genes in response to immunomodulatory formulations was measured in mouse lung cells.
Particulate formulations were produced by first preparing either a 1 mg/mL +ISS, 0.4% TWEEN® 85, 0.4% oleate solution or a 20 mg/mL HSA solution, then making that solution 5 mg/ml in PMXB. The formulations were allowed to stand for 24 hours at room temperature, then dialyzed using a 10 kDa membrane. Particulate formulations and +ISS alone (50 μL dose) were administered by intranasal instillation to lightly anesthetized mice (5 mice per group). Animals were sacrificed 6 hours after administration, lung tissue was surgically removed, and cell suspensions were made by homogenization of the lung tissue. cDNA was synthesized from RNA isolated from the cell suspensions, and RNA was quantitated using TAQMAN® Technology. The particulate formulations induced significant increases in the majority of the genes tested.

K562 cells = assay: NK cell lytic activity of stimulated PBMCs against 51Cr-loaded K562 cells; format: cell-based, human; conditions: 10 μg/mL IMC, 100 μg/mL PMXB, 48 hours
Description: IMC particulate formulations were tested for NK cell stimulatory activity. PBMCs from two donors were stimulated for 48 hours with 10 μg/mL IMC (“+ISS”) 5′-[…]-3′ (SEQ ID NO:1) with or without 100 μg/mL PMXB. The PBMCs were then assayed for lytic activity against K562 cells loaded with ^51Cr as target cells. For controls, K562 cells were cultured alone, K562 cells were lysed with Triton and K562 cells were stimulated with untreated PBMC cells. Determination of ^51CR released into culture media was used to measure the extent of target cell lysis. The presence of PMXB increased the NK cell lytic activity stimulated by the IMC alone.

[1] = test system: human peripheral blood lymphocytes (PBMCs); assay: hPBMC assay: IFN-γ and IFN-α production by human PBMCs (ELISA); format: cell-based; conditions: 20 μg/ml oligonucleotide
[2] = Effector:Target ratio 12.5:1, donor 2
[3] = Donor 28212, Controls, 100 μg/ml polymyxin
[4] = Donor 28213, Controls, 100 μg/ml polymyxin
[5] = Donor 28232, no Time given, 100 μg/ml polymyxin
[6] = Donor 28233, no Time given, 100 μg/ml polymyxin
[7] = Donor # 9, 100 μg/ml PMXB, 24 hours
[8] = Donor # 37, 100 μg/ml PMXB, 24 hours

5′-TGACTGTGAACGTTCGAGATGA-3′ [+ISS]
Relative Cycle Thresholds (CTs), 12/15-lipoxg (mouse lung cells; gene 12/15-lipoxg): 65
Relative Cycle Thresholds (CTs), BCA-1 (mouse lung cells; gene BCA-1): 5026
Relative Cycle Thresholds (CTs), CD80 (mouse lung cells; gene CD80): 205
Relative Cycle Thresholds (CTs), CD86 (mouse lung cells; gene CD86): 103
Relative Cycle Thresholds (CTs), COX-1 (mouse lung cells; gene COX-1): 2145
Relative Cycle Thresholds (CTs), COX-2 (mouse lung cells; gene COX-2): 446
Relative Cycle Thresholds (CTs), Eotaxin (mouse lung cells; gene Eotaxin): 273
Relative Cycle Thresholds (CTs), G-CSF (mouse lung cells; gene G-CSF): 92
Relative Cycle Thresholds (CTs), IFN-α2 (mouse lung cells; gene IFN-α2): 3
Relative Cycle Thresholds (CTs), IFN-γ (mouse lung cells; gene IFN-γ): 25
Relative Cycle Thresholds (CTs), IL-1a (mouse lung cells; gene IL-1a): 7523
Relative Cycle Thresholds (CTs), IL-1b (mouse lung cells; gene IL-1b): 1643
Relative Cycle Thresholds (CTs), IL-6 (mouse lung cells; gene IL-6): 755
Relative Cycle Thresholds (CTs), IL-10 (mouse lung cells; gene IL-10): 4
Relative Cycle Thresholds (CTs), IL-12p40 (mouse lung cells; gene IL-12p40): 6
Relative Cycle Thresholds (CTs), IL-23 (mouse lung cells; gene IL-23): 266
Relative Cycle Thresholds (CTs), IP-10 (mouse lung cells; gene IP-10): 23436
Relative Cycle Thresholds (CTs), LPTN (mouse lung cells; gene LPTN): 976
Relative Cycle Thresholds (CTs), MCP-1 (mouse lung cells; gene MCP-1): 5265
Relative Cycle Thresholds (CTs), MCP-3 (mouse lung cells; gene MCP-3): 3905
Relative Cycle Thresholds (CTs), MDC (mouse lung cells; gene MDC): 2869
Relative Cycle Thresholds (CTs), MIG (mouse lung cells; gene MIG): 3411
Relative Cycle Thresholds (CTs), MIP-1a (mouse lung cells; gene MIP-1a): 6156
Relative Cycle Thresholds (CTs), MIP-1b (mouse lung cells; gene MIP-1b): 12918
Relative Cycle Thresholds (CTs), MIP-2 (mouse lung cells; gene MIP-2): 1792
Relative Cycle Thresholds (CTs), MIP-3a (mouse lung cells; gene MIP-3a): 885
Relative Cycle Thresholds (CTs), MIP-3b (mouse lung cells; gene MIP-3b): 2030
Relative Cycle Thresholds (CTs), MMP-8 (mouse lung cells; gene MMP-8): 1505
Relative Cycle Thresholds (CTs), NOS2 (mouse lung cells; gene NOS2): 308
Relative Cycle Thresholds (CTs), TARC (mouse lung cells; gene TARC): 1505
Relative Cycle Thresholds (CTs), TCA-3 (mouse lung cells; gene TCA-3): 16
Relative Cycle Thresholds (CTs), TNF-α (mouse lung cells; gene TNF-α): 7170
51Cr released from K562 target cells, cpm1 (K562 cells; Effector:Target ratio 6:1, donor 1): 6935 cpm
51Cr released from K562 target cells, cpm2 (K562 cells; [2]): 8370 cpm
51Cr released from K562 target cells, mean (K562 cells; [2]): 8162 cpm
51Cr released from K562 target cells, cpm3 (K562 cells; Effector:Target ratio 25:1, donor 1): 8048 cpm
IFN-α ([1]; Donor 198, no Time given): 224 pg/mL
IFN-γ ([1]; Donor 198, no Time given): 10 pg/mL
IFN-α ([1]; Donor 199, no Time given): 277 pg/mL
IFN-γ ([1]; Donor 199, no Time given): 167 pg/mL
IFN-α [1, 3]: 135 pg/mL
IFN-γ [1, 3]: 5 pg/mL
IFN-α [1, 4]: 109 pg/mL
IFN-γ [1, 4]: 17 pg/mL
IFN-Υ [1, 5]: 276 pg/mL
IFN-α [1, 5]: 9 pg/mL
IFN-Υ [1, 6]: 20 pg/mL
IFN-α [1, 6]: 103 pg/mL
IFN-α [1, 7]: 131 pg/mL
IFN-γ [1, 7]: 20 pg/mL
IFN-γ ([1]; Donor # 20, 100 μg/ml PMXB, 24 hours): 291 pg/mL
IFN-α [1, 8]: 70 pg/mL
IFN-γ [1, 8]: 15 pg/mL
IFN-γ ([1]; Donor # 75, 100 μg/ml PMXB, 24 hours): 22 pg/mL
IFN-α ([1]; Donor # 86, 100 μg/ml PMXB, 24 hours): 358 pg/mL
